# In patent US20180282679A1, “CELL CULTURE APPARATUS” (The Ritsumeikan Trust, priority 2015, published 2018):
# Tests used:
# [1] = tested on: caco-2 cells; assay: Evaluation Test 2: perfusion of fluorescent dyes through the tubular-form culture substrate, absorption into cultured cells; type: in vitro ADME; conditions: HBSS, flow rate 0.05 mL min^-1 for 1 hour; calcein 100 μmol L^-1, Texas Red 10 μmol L^-1
# Protocol: Specifically, caco-2 cells imitating intestinal epithelium were cultured on a culture substrate. Caco-2 cells produced by DS pharma biomedical Co., Ltd. were used. The caco-2 cells were cultured in DMEM (Dulbecco-modified eagle's medium) to which 10% heat inactivated fetal bovine serum, penicillin G (100 U mL^−1), streptomycin (100 μg mL^−1), and 1% non-essential amino acid were added, under an environment at 37° C., 5% CO2), and 95% air. The caco-2 cells were dissociated in EDTA and 0.05% trypsin and passaged, and then the cells were seeded on collagen that forms a culture substrate on an upper surface of a balloon actuator. The caco-2 cells reached confluence in 7 days. The culture medium was replaced every 24 hours. […]
# The culture substrate in the tubular form was perfused with HBSS (Hanks' Balanced Salt Solution) containing fluorescent dyes, as a liquid corresponding to a drug solution, at a flow rate of 0.05 mL min^−1 for 1 hour. […] Thereafter, bright field images and fluorescence images of the caco-2 cells at a bottom part and an upper part of the culture substrate in the tubular form were observed.
# FIGS. 16A, 16B, 16C, 16D, 16E and 16G show microscope images of the caco-2 cells. […] FIGS. 16C and 16D show images obtained by imaging fluorescence signals from calcein at the bottom part and the upper part of the culture substrate in the tubular form, respectively. […]
# [2] = tested on: caco-2 cells; assay: Evaluation Test 3: absorption of dyes in tubular-form culture substrates having different inner diameters; type: in vitro ADME; conditions: inner diameter 0.5, 1.0 and 2.0 mm; flow rate 0.05 mL/min, perfused for 3 minutes
# From the text: The inventors of the present application studied dynamic characteristics of a fluid and absorption of a drug into a culture substrate in a tubular form when a liquid such as a drug solution was caused to flow in the culture substrate. Specifically, a fluid containing a drug was caused to flow in a plurality of types of tubular-form culture substrates having different inner diameters, and the states of the culture substrates before and after the flow of the fluid were observed. In addition, dynamic characteristics of the fluid in the respective tubular-form culture substrates were obtained by calculation.
# where Q is the flow rate of the liquid, μ is the viscosity of the liquid, ρ is the density of the liquid, L is the length of the tube, and r is the radius of the tube. The flow rate Q of the liquid is 0.05 mL/min, and the liquid was perfused for 3 minutes.
# FIGS. 19A, 19B and 19C show images obtained by causing a fluid containing Texas Red as a model of a lipophilic drug to flow in three types of tubular-form culture substrates having different diameters, and imaging fluorescence signals from the Texas Red. […]
# FIGS. 20A, 20B and 20C show images obtained by causing a fluid containing calcein as a model of a hydrophilic drug to flow in three types of tubular-form culture substrates having different inner diameters, and imaging fluorescence signals from the calcein.
absorption in the caco-2 cells (fluorescence images at bottom part and upper part of the tubular culture substrate) [1],Compound,speed of absorption depending on inner diameter of the tubular-form culture substrate (fluorescence images) [2]
uniformly absorbed in the caco-2 cells,O=C(O)CN(CC(=O)O)Cc1cc2c(cc1O)Oc1cc(O)c(CN(CC(=O)O)CC(=O)O)cc1C21OC(=O)c2ccccc21 [calcein],substantially no difference was observed in the speed of absorbing the hydrophilic drug
uniformly absorbed in the caco-2 cells,Texas Red,"the smaller the inner diameter of the tube is, the faster the lipophilic drug is absorbed"
